# From US20250041329A1, “ACIDIC POLYMER COMPOSITIONS AND METHODS OF USE THEREOF” (NexEos Diagnostics, Inc., priority 2023, published 2025)
# Where two headings read alike, the source gives them in different places.
# Key:
# [1] = cited from earlier work
# eMBP1 [2] = biological target: T1, eMBP1 (Homo sapiens, UniProt P13727); experiment: eMBP1 neutralization assay; assay type: cell-based; settings: for Hill Slope: eMBP1 neutralization curve fit; for IC50: eMBP1 neutralization potency
# T1 construct: the pro-piece is removed during granule maturation in the eosinophilic leukocyte to convert pro-eMBP1 to eMBP1
# T1 sequence (P13727 106-222): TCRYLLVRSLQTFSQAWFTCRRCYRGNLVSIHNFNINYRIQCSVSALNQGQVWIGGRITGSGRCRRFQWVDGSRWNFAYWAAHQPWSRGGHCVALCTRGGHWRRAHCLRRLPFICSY
# From the text: Methods: The goal of the investigation is to design and test a peptide product to neutralize and, thus, mitigate toxic effects of eosinophil granule proteins as a treatment for eosinophil-related diseases. Specifically, one aim is to test various polymers of acidic amino acids (i.e., glutamate and aspartate) for their ability to neutralize eMBP1 and compare their potencies to those of the pro-piece of pro-eosinophil major basic protein 1 (pro-eMBP1) as well as various heparins, i.e., low molecular weight heparin, high molecular weight heparin, and unfractionated heparin.
# Because pro-piece (PP) can neutralize the toxicity of eMBP1, we reasoned that a careful study of the carbohydrate and acidic peptide structures might elucidate the comparative functions of these domains and lead to an effective eMBP1 inhibitor. We obtained heparins and polymers of the acidic amino acids, glutamic and aspartic, and compared their potencies in the eMBP1 neutralization assay.
# eMBP1 [3] = biological target: T1, eMBP1; experiment: Inhibition of eMBP1-stimulated histamine release from mast cells; assay type: cell-based; settings: each inhibitor 50 μg/ml; eMBP1 10^−6 M; rat peritoneal mast cells; FIGS. 3A-3B
# Protocol: (§1) Methods: To determine if the compounds shown in Table 2 had the ability to inhibit eMBP1 in a different assay, the compounds were tested for their ability to inhibit eMBP1-stimulated histamine release from mast cells. Peritoneal cells from male rats were harvested, enriched by centrifugation through a cushion of 38% bovine serum albumin (with purities up to about 90%), and stimulated with eMBP1. As expected from previous work, eMBP1 at a concentration of 10^−6 M stimulated histamine release. Specifically, approximately 63% of total histamine was released (as determined by boiling the rat mast cells), and 84% was released in comparison to the amount released by compound 48/80 at 0.1 μg/ml.
# In order to test inhibition of eMBP1-stimulated histamine release, each inhibitor was provided as a concentration of 50 μg/ml. Polyglutamic acid (Sigma P4761) in the molecular weight range of 15-50 kDa was utilized for testing.
# mast cells = experiment: Histamine release from mast cells stimulated with eMBP1; assay type: cell-based, rat; settings: eMBP1 10^−6 M
# Protocol: as §1
# [4] = IC50 molar concentration, read-out: IC50
Molecule,Hill Slope (eMBP1 [2]),IC50 (eMBP1 [2]) [µg/mL],IC50 (eMBP1 [2]; [4]) [nM],other results
"N[C@@H](CC(=O)O)C(=O)O [monomer aspartic acid, aspartic acid, reference compound]",–,–,–,"pKa [1]: about 1.92; eMBP1 inhibitory activity (in words) (eMBP1 [2]; eMBP1 neutralization, Table 2 / FIG. 1): devoid of eMBP1 inhibitory activity"
Polyglutamic acid,–,–,–,inhibition of eMBP1-stimulated histamine release (eMBP1 [3]): roughly comparably and more potently than unfractionated heparin and both glycosylated and unglycosylated pro-piece
α poly-D-glutamic acid,2.445,5.197,157,–
α poly-L-aspartic acid [α poly-L-Asp 1.15 kDa],2.808,14.3,12400,–
α poly-L-aspartic acid [α poly-L-Asp 5.75 kDa],2.929,4.817,838,–
α poly-L-aspartic acid [α poly-L-Asp 23 kDa],3.061,4.301,187,–
α poly-L-glutamic acid [α poly-L-Glu 2.6 kDa],2.581,6.965,2680,–
α poly-L-glutamic acid [α poly-L-Glu 7.5 kDa],3.202,6.158,821,–
α poly-L-glutamic acid [α poly-L-Glu 9 kDa],3.499,5.961,662,–
α poly-L-glutamic acid [α poly-L-Glu 33 kDa],2.786,5.118,155,–
α poly-L-glutamic acid [α poly-L-Glu 120 kDa],2.621,4.525,37.7,–
γ polyglutamic acid [γ poly-Glu 1.2 kDa],2.177,19.6000,16300,–
γ polyglutamic acid [γ poly-Glu <10 kDa],2.534,4.62,> 462,–
γ polyglutamic acid [γ poly-Glu >700 kDa],11.5,3.317,< 4.74,–
"eMBP1: eosinophil major basic protein-1, 13.8 kDa single polypeptide of the eosinophil granule core; stimulus in the assays (protein, UniProt P13727 17-222, looked up, Bone marrow proteoglycan, eosinophil major basic protein-1, 13.8 kDa single polypeptide of the eosinophil granule core; stimulus in the assays) Bone marrow proteoglycan: LHLRSETSTFETPLGAKTLPEDEETPEQEMEETPCRELEEEEEWGSGSEDASKKDGAVESISVPDMVDKNLTCPEEEDTVKVVGIPGCQTCRYLLVRSLQTFSQAWFTCRRCYRGNLVSIHNFNINYRIQCSVSALNQGQVWIGGRITGSGRCRRFQWVDGSRWNFAYWAAHQPWSRGGHCVALCTRGGHWRRAHCLRRLPFICSY",–,–,–,"histamine released in comparison to the amount released by compound 48/80 (mast cells; compound 48/80 at 0.1 μg/ml): 84%; histamine released, of total histamine (mast cells; total determined by boiling the rat mast cells): approximately 63%"
